Literature values, collected in patent US9060935B2, “Pharmaceutical lipid compositions” (CAMURUS AB, priority 2005, dated 2015).

Experiments:
[1] = room temperature
[2] = native GLP-1

| Compound | equilibrium water solubility [1] | plasma half-life [2] |
| --- | --- | --- |
| CCCCCCCC/C=C\CCCCCCCC(=O)OCC(O)CO (centres unmarked) [GMO, glycerol monooleate] | ~10^−7 M | – |
| GLP-1: native glucoregulatory hormone, 37-amino acid peptide with a MW of 4.2 KDa | – | below 2 minutes |
